# Reference: patent publication US20050147640A1, “Noctuid attractant composition” (priority 2002, published 2005)
# System: Noctuidae
# Test: Sticky board trap comparison of attractant blends beside cotton crops
# Type: in vivo
# Text: Comparisons of a range of attractant blends were made using sticky board traps adjacent to cotton crops on the Darling Downs region of Queensland, Australia. This experimental set up allowed comparison of attractants in the presence of the crop volatiles without confusing factors such as the effect of non-volatile feeding stimulants.
# A series of rectangular boards 1.2 metres high×1.5 metres wide were placed approximately 1 metre outside the edge of a cotton field at spacings of 50 metres. The boards were suspended at a height of 1 metre above the ground using star posts. Four 100 mm diameter round holes were made in the centre of the boards and cotton wicks containing experimental attractant mixes were suspended in these holes using a paper clip. The boards were coated on both sides with 500 to 700 grams of polybutene sticker so insects attracted to the experimental volatiles would become trapped on the boards. Impregnated wicks were placed in the traps mid afternoon and traps were checked after 48 hours.
smiles,measurement,setting,value
"O=CCc1ccccc1 [PAA, Phenylacetaldehyde]",Mean (Moths/board),"Table 3, total of all Noctuidae, 3.12 mg of each ingredient per sticky board, traps checked after 48 hours",1.00 Moths/board
same,Comparison of moth catch in words,"Table 3 experiment, sticky traps",not significantly attractive
